Molecular target: T1, purified recombinant human p38 alpha MAPK (Homo sapiens, UniProt Q16539)
T1 construct: purchased Millipore, USA
Experiment: Inhibition of p38 alpha MAPK activity, TR-FRET kinase assay
Assay type: biochemical
Settings: read-out: P38α Inhibition; for inhibition at 1 µM: Concentration 1 μM
Procedure: Inhibition of p38 Alpha MAPK Activity: Time-Resolved Fluorescence Resonance Energy Transfer Kinase Standard Assay (TR-FRET Assay)
Compounds of present invention at various concentrations were premixed with DMSO. The experiment was initiated by mixing 0.5%-1.0% DMSO as vehicle/compounds with purified recombinant human p38 alpha MAPK (Millipore, USA) in the wells and 15 min incubation at room temperature. Thereafter, 30 nM of Biotinylated GST-ATF2 (Activation transcription Factor2) and 100 μM of ATP were added in to the wells containing reaction mixture, followed by reincubation for 60 minutes at RT. Reaction was terminated by addition of 10 mM of EDTA and detection reagent containing anti-phosphotheronine ATF2 antibody (PerkinElmer®, USA) labeled with europium chelate and APC (Allophycocyanin) labeled streptavidin, into the reaction mixture which was further incubated for 60 minutes at room temperature. The degree of phosphorylation of the substrate (GST-ATF2) was measured using Envision multimode reader (PerkinElmer®). Percentage inhibition of p38 kinase activity was calculated by determining ratio of specific europium 665 nm energy transfer signal to reference 615 nm signal.

T1 sequence (Q16539 whole entry): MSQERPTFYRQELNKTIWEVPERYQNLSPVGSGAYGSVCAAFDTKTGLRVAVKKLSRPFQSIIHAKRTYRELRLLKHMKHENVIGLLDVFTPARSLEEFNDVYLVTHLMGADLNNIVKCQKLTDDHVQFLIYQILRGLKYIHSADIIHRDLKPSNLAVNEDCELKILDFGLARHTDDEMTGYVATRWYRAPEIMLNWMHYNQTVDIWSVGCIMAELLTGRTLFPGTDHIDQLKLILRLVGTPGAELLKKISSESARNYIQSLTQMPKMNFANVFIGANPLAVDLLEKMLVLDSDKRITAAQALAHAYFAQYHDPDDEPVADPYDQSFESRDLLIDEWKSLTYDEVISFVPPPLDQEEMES

inhibition at 1 µM | inhibition at 0.1 µM (Concentration 100 nM) | Structure (SMILES)
40 to 60% |  | Cc1ccc(-n2nc(C(C)(C)C)cc2NC(=O)Nc2ccc(OCC(=O)N3CCn4c(nnc4C(F)(F)F)C3)c3c2CCC3)cc1Cl [Compound 56, 1-[3-tert-butyl-1-(3-chloro-4-methylphenyl)-1H-pyrazol-5-yl]-3-(7-{2-oxo-2-[3-(trifluoromethyl)-5,6-dihydro[1,2,4]triazolo[4,3-a]pyrazin-7(8H)-yl]ethoxy}-2,3-dihydro-1H-inden-4-yl)urea]
40 to 60% |  | COc1c(NC(=O)Nc2cc(C)c(OCCN3CCn4c(nnc4-c4cc(Cl)ccc4O)C3)c3c2CCC3)cc(C(C)(C)C)cc1NS(C)(=O)=O [Compound 73, N-(5-tert-butyl-3-{[(7-{2-[3-(5-chloro-2-hydroxyphenyl)-5,6-dihydro[1,2,4]triazolo[4,3-a]pyrazin-7(8H)-yl]ethoxy}-6-methyl-2,3-dihydro-1H-inden-4-yl)carbamoyl]amino}-2-methoxyphenyl)methanesulfonamide]
80 to 100% |  | CSc1ccccc1-c1nnc2n1CCN(C(=O)COc1ccc(NC(=O)Nc3cc(C(C)(C)C)nn3-c3ccc(O)c(Cl)c3)c3c1CCC3)C2 [Compound 9, 1-[3-tert-butyl-1-(3-chloro-4-hydroxyphenyl)-1H-pyrazol-5-yl]-3-[7-(2-{3-[2-(methylsulfanyl)phenyl]-5,6-dihydro[1,2,4]triazolo[4,3-a]pyrazin-7(8H)-yl}-2-oxoethoxy)-2,3-dihydro-1H-inden-4-yl]urea]
80 to 100% |  | CSc1ccccc1-c1nnc2n1CCN(C(=O)COc1ccc(NC(=O)Nc3cc(C(C)(C)C)nn3-c3ccccc3)c3c1CCC3)C2 [Compound 7, 1-(3-tert-butyl-1-phenyl-1H-pyrazol-5-yl)-3-[7-(2-{3-[2-(methylsulfanyl)phenyl]-5,6-dihydro[1,2,4]triazolo[4,3-a]pyrazin-7(8H)-yl}-2-oxoethoxy)-2,3-dihydro-1H-inden-4-yl]urea]
< 20% |  | CCOC(=O)c1c(NC(=O)C2CC2)sc2c1CCN(C(=O)COc1ccc(NC(=O)Nc3cc(C(C)(C)C)nn3-c3ccc(C)cc3)c3c1CCC3)C2 [Compound 54, ethyl 6-({[7-({[3-tert-butyl-1-(4-methylphenyl)-1H-pyrazol-5-yl]carbamoyl}amino)-2,3-dihydro-1H-inden-4-yl]oxy}acetyl)-2-[(cyclopropylcarbonyl)amino]-4,5,6,7-tetrahydrothieno[2,3-c]pyridine-3-carboxylate]
20 to 40% |  | CC(C)(C)c1cc(NC(=O)Nc2ccc(OCC(=O)N3CCn4c(nnc4C(F)(F)F)C3)c3c2CCC3)n(-c2ccc(C3CCCCC3)cc2)n1 [Compound 3, 1-[3-tert-butyl-1-(4-cyclohexylphenyl)-1H-pyrazol-5-yl]-3-(7-{2-oxo-2-[3-(trifluoromethyl)-5,6-dihydro[1,2,4]triazolo[4,3-a]pyrazin-7(8H)-yl]ethoxy}-2,3-dihydro-1H-inden-4-yl)urea]
< 20% |  | CC(=O)Nc1cc2c(s1)CCN(C(=O)COc1ccc(NC(=O)Nc3cc(C(C)(C)C)nn3-c3ccc(C4CCCCC4)cc3)c3c1CCC3)C2 [Compound 55, N-[5-({[7-({[3-tert-butyl-1-(4-cyclohexylphenyl)-1H-pyrazol-5-yl]carbamoyl}amino)-2,3-dihydro-1H-inden-4-yl]oxy}acetyl)-4,5,6,7-tetrahydrothieno[3,2-c]pyridin-2-yl]acetamide]
 | 80 to 100% | CCS(=O)(=O)Nc1cc(C(C)(C)C)cc(NC(=O)Nc2ccc(OCCN3CCn4c(nnc4-c4ccccc4SC)C3)c3c2CCC3)c1OC [Compound 45, N-[5-tert-butyl-2-methoxy-3-({[7-(2-{3-[2-(methylsulfanyl)phenyl]-5,6-dihydro[1,2,4]triazolo[4,3-a]pyrazin-7(8H)-yl}ethoxy)-2,3-dihydro-1H-inden-4-yl]carbamoyl}amino)phenyl]ethanesulfonamide]
40 to 60% |  | COc1cc(-n2nc(C(C)(C)C)cc2NC(=O)Nc2ccc(OCCN3CCN(CC4CC4)C(=O)C3)c3c2CCC3)cc(OC)c1OC [Compound 70, 1-[3-tert-butyl-1-(3,4,5-trimethoxyphenyl)-1H-pyrazol-5-yl]-3-(7-{2-[4-(cyclopropylmethyl)-3-oxopiperazin-1-yl]ethoxy}-2,3-dihydro-1H-inden-4-yl)urea]
60 to 80% |  | Cc1ccc(-n2nc(C(C)(C)C)cc2NC(=O)Nc2ccc(OCC(=O)N3CCn4c(nnc4-c4ccccc4)C3)c3c2CCC3)cc1 [Compound 57, 1-[3-tert-butyl-1-(4-methylphenyl)-1H-pyrazol-5-yl]-3-{7-[2-oxo-2-(3-phenyl-5,6-dihydro[1,2,4]triazolo[4,3-a]pyrazin-7(8H)-yl)ethoxy]-2,3-dihydro-1H-inden-4-yl}urea]
40 to 60% |  | COc1c(NC(=O)Nc2ccc(OCCN3CCn4c(nnc4C4CCCCC4)C3)c3c2CCC3)cc(C(C)(C)C)cc1NS(C)(=O)=O [Compound 72, N-{5-tert-butyl-3-[({7-[2-(3-cyclohexyl-5,6-dihydro[1,2,4]triazolo[4,3-a]pyrazin-7(8H)-yl)ethoxy]-2,3-dihydro-1H-inden-4-yl}carbamoyl)amino]-2-methoxyphenyl}methanesulfonamide]
80 to 100% |  | Cc1ccc(-n2nc(C(C)(C)C)cc2NC(=O)Nc2ccc(OCCN3CCn4c(nnc4-c4ccccc4O)C3)c3c2CCC3)cc1 [Compound 15, 1-[3-tert-butyl-1-(4-methylphenyl)-1H-pyrazol-5-yl]-3-(7-{2-[3-(2-hydroxyphenyl)-5,6-dihydro[1,2,4]triazolo[4,3-a]pyrazin-7(8H)-yl]ethoxy}-2,3-dihydro-1H-inden-4-yl)urea]
80 to 100% |  | CCCSc1ccccc1-c1nnc2n1CCN(CCOc1ccc(NC(=O)Nc3cc(C(C)(C)C)nn3-c3ccc(O)c(Cl)c3)c3c1CCC3)C2 [Compound 35, 1-[3-tert-butyl-1-(3-chloro-4-hydroxyphenyl)-1H-pyrazol-5-yl]-3-[7-(2-{3-[2-(propylsulfanyl)phenyl]-5,6-dihydro[1,2,4]triazolo[4,3-a]pyrazin-7(8H)-yl}ethoxy)-2,3-dihydro-1H-inden-4-yl]urea]
80 to 100% |  | CC(C)(C)c1cc(NC(=O)Nc2ccc(OCCN3CCn4c(nnc4-c4ccccc4O)C3)c3c2CCC3)n(-c2ccc(O)c(Cl)c2)n1 [Compound 26, 1-[3-tert-butyl-1-(3-chloro-4-hydroxyphenyl)-1H-pyrazol-5-yl]-3-(7-{2-[3-(2-hydroxyphenyl)-5,6-dihydro[1,2,4]triazolo[4,3-a]pyrazin-7(8H)-yl]ethoxy}-2,3-dihydro-1H-inden-4-yl)urea]
80 to 100% |  | CC(C)(C)c1cc(NC(=O)Nc2ccc(OCC(=O)N3CCn4c(nnc4-c4ccccc4SCCN4CCOCC4)C3)c3c2CCC3)n(-c2ccccc2)n1 [Compound 11, 1-(3-tert-butyl-1-phenyl-1H-pyrazol-5-yl)-3-(7-(2-[3-(2-{[2(morpholin-4-yl)ethyl]sulfanyl}phenyl)-5,6-dihydro[1,2,4]triazolo[4,3-a]pyrazin-7(8H)-yl]-2-oxoethoxy}-2,3-dihydro-1H-inden-4-yl)urea]
60 to 80% |  | Cc1ccc(-n2nc(C(C)(C)C)cc2NC(=O)Nc2ccc(OCCN3CCn4c(nnc4-c4cccc5ccccc45)C3)c3c2CCC3)cc1 [Compound 67, 1-[3-tert-butyl-1-(4-methylphenyl)-1H-pyrazol-5-yl]-3-(7-{2-[3-(naphthalen-1-yl)-5,6-dihydro[1,2,4]triazolo[4,3-a]pyrazin-7(8H)-yl]ethoxy}-2,3-dihydro-1H-inden-4-yl)urea]
80 to 100% |  | Cc1ccc(-n2nc(C(C)(C)C)cc2NC(=O)Nc2ccc(OCCN3CCN(CCO)C(=O)C3)c3c2CCC3)cc1 [Compound 6, 1-[3-tert-butyl-1-(4-methylphenyl)-1H-pyrazol-5-yl]-3-(7-{2-[4-(2-hydroxyethyl)-3-oxopiperazin-1-yl]ethoxy}-2,3-dihydro-1H-inden-4-yl)urea]
80 to 100% |  | Cc1ccc(-n2nc(C(C)(C)C)cc2NC(=O)Nc2ccc(OCCN3CCn4c(nnc4-c4ccccc4OCCO)C3)c3c2CCC3)cc1 [Compound 30, 1-[3-tert-butyl-1-(4-methylphenyl)-1H-pyrazol-5-yl]-3-[7-(2-{3-[2-(2-hydroxyethoxy)phenyl]-5,6-dihydro[1,2,4]triazolo[4,3-a]pyrazin-7(8H)-yl}ethoxy)-2,3-dihydro-1H-inden-4-yl]urea]
40 to 60% |  | Cc1ccc(-n2nc(C(C)(C)C)cc2NC(=O)Nc2ccc(OCCN3CCn4c(nnc4-c4oc5ccccc5c4C)C3)c3c2CCC3)cc1 [Compound 69, 1-[3-tert-butyl-1-(4-methylphenyl)-1H-pyrazol-5-yl]-3-(7-{2-[3-(3-methyl-1-benzofuran-2-yl)-5,6-dihydro[1,2,4]triazolo[4,3-a]pyrazin-7(8H)-yl]ethoxy}-2,3-dihydro-1H-inden-4-yl)urea]
80 to 100% |  | Cc1ccc(-n2nc(C(C)(C)C)cc2NC(=O)Nc2ccc(OCC(=O)N3CCn4c(nnc4C(F)(F)F)C3)c3c2CCC3)cc1 [Compound 1, 1-[3-tert-butyl-1-(4-methylphenyl)-1H-pyrazol-5-yl]-3-(7-{2-oxo-2-[3-(trifluoromethyl)-5,6-dihydro[1,2,4]triazolo[4,3-a]pyrazin-7(8H)-yl]ethoxy}-2,3-dihydro-1H-inden-4-yl)urea]
20 to 40% |  | CC(C)(C)c1cc(NC(=O)Nc2ccc(OCCN3CCn4c(nnc4C4CCCCC4)C3)c3c2CCC3)n(-c2ccc(O)c(Cl)c2)n1 [Compound 65, 1-[3-tert-butyl-1-(3-chloro-4-hydroxyphenyl)-1H-pyrazol-5-yl]-3-{7-[2-(3-cyclohexyl-5,6-dihydro[1,2,4]triazolo[4,3-a]pyrazin-7(8H)-yl)ethoxy]-2,3-dihydro-1H-inden-4-yl}urea]
